Results reported in the OPERA property sets (Mansouri et al. 2018).
Peptide text beside a SMILES is read from it.

Compound	logP
CC(C)Nc1nc(Cl)nc(NC(C)C)n1	2.93
CC(C#N)c1ncc([N+](=O)[O-])[nH]1 (stereo not given)	-0.07
CN(C)C(N(C)C)=S(I)c1cccc(C#N)c1 (stereo not given)	-1.1
COc1ccc(C=C(C(C)=O)C(C)=O)c(OC)c1	1.88
O=C(O)c1ccc(Oc2ccccc2)cc1	3.91
Cc1cc(C(=O)NN)ccn1	-0.37
O=[N+]([O-])c1ccc2oncc2c1	1.46
COc1ccc(O)c2ncccc12	2.06
CC(C)c1ccccc1OCC(=O)O	2.84
ICCCc1ccccc1	3.9
CCCCCCOC(=O)c1cc(O)c(O)c(O)c1	3.17
Oc1c(Br)cc(Br)c(O)c1Br	4.37
Clc1ccccc1-c1cccc(Cl)c1Cl	5.31
O=C1C=CC(=O)C(Cl)=C1	0.84
Cc1cc(C)c(N(C)C)c(C)c1	4.41
Cn1cnc([N+](=O)[O-])n1	-0.68
CC1(C)N=C(N)N=C(N)N1c1ccc(Br)cc1	1.09
Cc1ccco1	1.85
CNC(=O)Oc1cccc2c1OC(C)(C)O2	1.7
COc1ccc(NC(=O)NN=Cc2ccc[nH]2)cc1	2.67
O=C(Nc1ccc(Cl)c(Cl)c1)C1CC1	3.83
COc1ccc(C(O)C(C(=O)O)c2ccc(-c3ccccc3)cc2)cc1 (stereo not given)	3.59
NNC(=O)c1ccccc1	0.19
O=C(Oc1ccc(N=C=S)cc1)c1ccccc1	4.9

Compound	logP
C=CCBr	1.79
Cc1ncc([N+](=O)[O-])n1CCS(C)(=O)=O	-0.82
O=[N+]([O-])c1ccc(N2CCCCC2)cc1	3.26
COC(=O)c1ccc[nH]1	1.17
CN(C)c1ccncc1	1.34
C[C@]12CCC(=O)C=C1C=C[C@@H]1[C@@H]2CC[C@@]2(C)[C@H]1CC[C@@]21CCC(=O)O1	2.68
CCn1c(=O)c2nc(-c3ccc(S(=O)(=O)NCCN(C)C)cc3)[nH]c2n(CC)c1=O	2.57
CNc1nc2c3cccnc3ccc2n1C	1.82
CCOc1ccc(OC(=O)NC)cc1	1.63
CC(=O)N[C@@H](C)C(=O)N[C@@H](Cc1ccc(O)cc1)C(=O)N[C@@H](CC(C)C)C(N)=O (Ac-Ala-Tyr-Leu-NH2)	-0.04
CCOC(=O)c1ccc([N+](=O)[O-])cc1	2.33
CON(C)C(=O)Nc1ccc2c(c1)Cc1ccccc1-2	3.67
O=[N+]([O-])c1cc(Cl)c(O)c(Cl)c1Cl	3.93
N#Cc1c(Cl)cccc1Cl	2.74
NC(=O)c1cccc(O)c1	0.39
CC(C(=O)O)c1ccc(N2CC3=C(CCCC3)C2=O)cc1 (stereo not given)	3.07
O=C1CN=C(c2ccccc2Cl)c2cc([N+](=O)[O-])ccc2N1	2.41
CCOC(=O)c1ccncc1	1.43
CCC(=O)CC	0.99
Oc1cc(Cl)cc(Cl)c1Cl	3.84
Nc1ccc(C(=O)Oc2ccccc2Cl)c(O)c1	3.72
ClC(Cl)C(c1ccccc1)c1ccccc1	4.51
CCC(C)(C)Cl	2.52
CCOC(=O)Oc1cccc2cccnc12	1.73

Compound	logP
CCc1ccccn1	1.69
C1CCc2nnnn2CC1	0.14
CC(=O)OCC1OC(n2ccnc2[N+](=O)[O-])C(OC(C)=O)C(OC(C)=O)C1OC(C)=O (stereo not given)	0.52
OCCCO	-1.04
NS(=O)(=O)c1cc2c(cc1Cl)NC(Cc1ccccc1)NS2(=O)=O (stereo not given)	0.93
CCN(CC)CCNC(=O)c1cc(S(=O)(=O)CC)c(N)cc1OC	1.7
O=C(CN1CCCCC1)Nc1ccc(I)cc1	3.9
COC(=O)c1ccc(C(=O)OC)cc1	2.25
CCc1ccccc1OC(=O)NC	1.93
CCCOC=O	0.83
CCCCCN(C)/N=N/c1ccc(C(N)=O)cc1	3.18
Cc1ccc(NS(=O)(=O)c2ccc(N)cc2)cc1	2.11
NC(=O)C(=Cc1ccccc1)C(N)=O	-0.13
Oc1ccc(C2CCCCC2)cc1	4.22
CCOC(=O)c1ccco1	1.52
O=C1C=C(Br)C(=O)c2ccccc21	2.44
NS(=O)(=O)c1ccccc1[N+](=O)[O-]	0.34
CC(C)Cc1cc(C(=O)NN)ccn1	1.02
NNC=O	-2.05
O=C(O)c1ccccc1Nc1cccc(C(F)(F)F)c1	5.25
COc1ccco1	1.44
CC/C(=C\c1ccccc1)[N+](=O)[O-]	2.86
c1ccc(-c2cccc(-c3ccccc3)n2)cc1	4.82
CCC1(CC)C(=O)NC(=O)N(C)C1=O	1.15

Compound	logP
NNC(=O)c1ccccc1Cl	0.14
C[C@@H](N)[C@@H](O)c1ccccc1	0.67
CCC(C)N(C(=O)SCc1ccccc1)C(C)CC (stereo not given)	4.4
CCOc1cccc2cccnc12	2.25
Clc1ccc2ncccc2c1	2.73
OCC(F)(F)F	0.41
O=C1OCc2c(Cl)c(Cl)c(Cl)c(Cl)c21	3.2
CNc1ccc(C)cc1	2.15
CCC(=O)Nc1ccc(Cl)c(Cl)c1	3.07
CC(=O)c1ccccc1N	1.63
NCCc1c[nH]c2ccc(O)cc12	0.21
CCC1(CC)C(=O)NC(=O)NC1=O	0.65
CC(=O)c1ccc[nH]1	0.93
O=CNc1cccc(Cl)c1	1.9
Brc1cccs1	2.75
CC(=O)Nc1nccs1	0.76
NC(=O)CCCc1cccnc1	-0.08
O=[N+]([O-])c1ccncc1	0.33
Oc1ccccc1F	1.71
CN1CCc2cccc3c2[C@H]1Cc1ccc(O)c(O)c1-3	2.3
S=C=Nc1cccc2ccccc12	4.34
CN(C)N=Nc1ccc(C=CC(=O)O)cc1	2.66
CN1C(CCl)Nc2cc(Cl)c(S(N)(=O)=O)cc2S1(=O)=O (stereo not given)	1.42
Clc1cc(Cl)nc(Cl)c1	2.68

Compound	logP
O=NN1CCCC(O)C1 (stereo not given)	-0.47
COC(=O)c1cccc(C(=O)O)c1	1.83
O=C(O)CCCc1c[nH]c2ccccc12	2.3
CN1CCCCC1	1.3
COC(=O)c1cccnc1	0.83
Oc1ccc(Cl)c(Cl)c1Cl	3.8
CC(=O)Nc1cccc(OCc2cccc(NC(=N)NC(=N)N)c2)c1	1.82
CC(C)C(C(=O)OC(C#N)c1cccc(Oc2ccccc2)c1)c1ccc(Cl)cc1 (stereo not given)	6.2
CCC(C)c1cccc(C(C)CC)c1O (stereo not given)	4.36
O=C(O)c1cc(O)cc(O)c1	0.86
CCCCC(=O)OCC(=O)[C@@]1(OC(=O)CCCC)[C@@H](C)C[C@H]2[C@@H]3CCC4=CC(=O)C=C[C@]4(C)[C@@]3(F)[C@@H](O)C[C@@]21C	5.26
CC#CC	1.46
COC(=O)C(F)(F)F	0.6
O=C(NCc1ccc(O)cc1)c1ccccc1	1.87
N#CCc1ccccc1	1.56
COc1cc(CCN)cc(OC)c1OC	0.78
NS(=O)(=O)c1ccc2ncccc2c1	0.56
O=C1C2(Cl)C3(Cl)C4(Cl)C(Cl)(Cl)C5(Cl)C3(Cl)C1(Cl)C5(Cl)C24Cl (stereo not given)	5.41
CCCCCCCc1nn[nH]n1	2.01
CNC(=O)OCc1c2c(n3c1C(OC(C)=O)CC3)C(=O)C(Cl)=C(OC)C2=O (stereo not given)	2.08
CC(C)C(N)C(=O)O (stereo not given)	-2.26
COC	0.1
CCCS(=O)(=O)CCC	0.39
COc1ccccc1	2.11

Compound	logP
N#CCCN(CCC#N)N=O	0.08
CC(C)C(=O)c1ccccc1	2.73
CN(N=O)C(=O)Nc1ccc(F)cc1	1.88
Clc1cccc(Cl)c1	3.53
CCN(CC)CC(=O)NC1CCc2ccccc21 (stereo not given)	2.74
CON(C)C(=O)Nc1ccc([N+](=O)[O-])cc1	1.74
NC(C(=O)O)c1cccs1 (stereo not given)	-2.05
COc1ccccc1NC(=O)Nc1ccccc1OC	2.98
CCOP(=O)(OCC)Oc1ccc(SC)cc1Cl	3.05
O=C(O)C(c1ccc(-c2ccccc2)cc1)C(O)c1ccccc1F (stereo not given)	3.77
O=C(O)CSc1c[nH]c2ccccc12	1.78
Clc1cncc(Cl)c1	2.56
CC(=O)Nc1ccc2c(c1)[nH]c1ccccc12	3.02
COc1ccc(S(I)=C(N(C)C)N(C)C)c([N+](=O)[O-])c1 (stereo not given)	-0.22
O=P1(NCCCl)OCCCN1CCCl (stereo not given)	0.86
N#Cc1ccccc1O	1.61
C#CCCCC	2.73
NNC(=O)c1ccnc(Cl)c1	0.11
O=C(Nc1ccccc1)C1CNCCN1 (stereo not given)	0.48
CCCCNc1ccc(C(=O)OCCOCCOCCOCCOCCOCCOCCOCCOCCOC)cc1	2.45
CCCCC(=O)OC	1.96
NS(=O)(=O)c1ccc2c(c1)S(=O)(=O)NC=N2	-0.7
CCN(CC)c1ccccc1	3.31
COc1ccc2c(c1)N(C[C@H](C)CN(C)C)c1ccccc1S2	4.68

Compound	logP
COc1ccc(NS(=O)(=O)c2ccc(N)cc2)nn1	0.32
CNC(=O)OCc1c2c(n3c1C(OC(C)=O)CC3)C(=O)C=C(OC)C2=O (stereo not given)	1.19
CC(C)CC(N)C(=O)OCn1ncc2c(=O)[nH]cnc21 (stereo not given)	0.19
CCOC(=O)C(F)(F)C(F)(F)F	2.12
O=[N+]([O-])c1ccccc1C(F)(F)F	2.58
Cc1nc2ccccc2[nH]1	1.43
CCNC(=O)CBr	0.34
FC(F)Cl	1.08
O=C1C=C(N2CC2)C(=O)c2ccccc21	1.71
Brc1ccc2[nH]ccc2c1	3
OC12CC3CC(CC(C3)C1)C2	2.14
CCCC(=O)NN	-0.62
CCN(CC)N=Nc1ccc(C(N)=O)cc1	2.26
Clc1cc2oc3c(Cl)c(Cl)ccc3c2c(Cl)c1Cl	6.26
Nc1ccn([C@@H]2C=C(CO)[C@@H](O)[C@H]2O)c(=O)n1	-2.45
Cn1c(=O)ccc2ccccc21	1.45
CNP(=O)(OC)Oc1ccccc1Cl (stereo not given)	1.61
O=[N+]([O-])c1nccn1C1OC(CI)C(O)C1O (stereo not given)	0.32
Nc1ccccn1	0.48
O=C(O)COc1ccc(C2CCCCC2)cc1	3.79
CC(C)NC(=O)C=Cc1ccc([N+](=O)[O-])o1	1.34
